Measured values from patent US20040091855A1, “Method for production of antivirals by use of HIV-derived HR1 peptides, and trimers formed therefrom” (priority 2002, published 2004).

How the values were obtained:
HIV-1 = details: in vitro infectivity assay
Excerpt: These assays score for reduction of infectious virus titer employing the indicator cell lines MAGI or the CCR5 expressing derivative cMAGI. Both cell lines exploit the ability of HIV-1 tat to transactivate the expression of a β-galactosidase reporter gene driven by the HIV-LTR. The β-gal reporter has been modified to localize in the nucleus and can be detected with the X-gal substrate as intense nuclear staining within a few days of infection. The number of stained nuclei can thus be interpreted as equal to the number of infectious virions in the challenge inoculum if there is only one round of infection prior to staining. […] The cells were cultured for 2 more days, and then fixed and stained with the X-gal substrate to detect HIV-infected cells. The number of infected cells for each control and peptide dilution was determined with the CCD-imager, and then the IC50 and IC90 were calculated (expressed in μg/ml).

[1] = tested on: trimers (SEQ ID NO:36) and labeled HR2 peptide (SEQ ID NO:33); experiment: Fluorescence polarization assay of inhibition of complexing between trimers and labeled HR2 peptide; type: binding, HIV-1; details: read-out: Concentration to inhibit complexing between the trimers and labeled HR2 peptide by 50% (IC50); fluorescein-labeled HR2 peptide 0.2 nM; trimers SEQ ID NO:36 50 nM
Protocol: In an example of a homogenous assay carried out as a liquid phase-based assay system, a fluorescence polarization assay was used in taking advantage of the high affinity interaction between HR1 and HR2 regions. Into reaction wells of a high throughput plate (>300 reaction wells) was added 20 μl of a solution containing a desired concentration of molecule to be assessed for its ability to bind to trimers employed with the present invention (e.g., formed from synthetic peptide) and either inhibit or disrupt HR1-HR2 binding interactions (“complexing between HR1 and HR2″). […] To each reaction well was then added 10 μl of a solution containing a desired concentration of trimers (formed from synthetic peptide employed with the present invention). […] Fluorescence intensity of polarized light was then measured with a detection system comprising a spectrophotometer, and the amount of polarized light was calculated using standard software in the art. In this example of the method according to the present invention, molecules assessed for ability to inhibit or disrupt complexing between trimers and a labeled HR2 peptide (e.g., SEQ ID NO:33) comprised either of two HR2 peptides.

HR2 peptide A: HR2 peptide, derived from the HR2 region of HIV-1 gp41; also used labeled as binding partner (WMEWDREINNYTSLIHSLIEESQNQQEKNEQELLEL)
Antiviral activity against HIV-1 IC50 (HIV-1): 0.002 µg/mL
Antiviral activity against HIV-1 IC90 (HIV-1): 0.072 µg/mL
IC50 [1]: 68 nM
